# pIC50: −log10 of the molar value. Several values for one entry are separate records, joined by “and”; a condition that tells them apart may be missing. Identical values can stand only once.
# Columns and labels:
# IRE1α = details: Fig. 1b; read-out: IC50 of reported IRE1α inhibitor; cited from earlier work
# [1] = test system: XBP1 mRNA splicing in A549 cells; assay: RT-qPCR of ER stress-induced XBP1 mRNA splicing, A549; type: cell-based, human; details: Fig. 7c, 0.5μg/mL Tm, individual replicates
# Experimental: (§1) A549 cells, HCT 116 cells, and HT-29 cells were collected and seeded in 6-well plates at a density of 5 × 10^5 cells per well and cultured overnight to attach, then treated with compound or DMSO for 2 h, then 0.5 μg/mL final concentration of tunicamycin (Tm, MP Biomedi, 0215002805) were added to induce the ER stress for 2 h. After treatment, total RNA was purified using an RNeasy mini kit (Qiagen, 74106). 500 ng of total RNA was used for reverse transcription using the High-Capacity cDNA Reverse Transcription Kits (Thermo Fisher, 4368814). cDNA was diluted 1: 5 using RNase-free water, and 1 μL CDNA was used for each qPCR reaction. The qPCR was performed using PowerUp™ SYBR™ Green Master Mix (Thermo Fisher, A25742) with 10 µL reaction volume using Bio-Rad CFX96 Real-Time PCR Detection System following the standard cycling mode (primer Tm ≥ 60 °C) on the manufacturer’s protocol. Data was analyzed using the 2^- ΔΔCt method. The primers used are listed in Supplementary Table S3. The inhibition % was calculated by using the equation: inhibition% = 100× (normalized Tm control - normalized of the sample)/(normalized Tm control - normalized DMSO control). Tm control: Cells treated with tunicamycin; DMSO control: Cells treated with DMSO only.
# [2] = test system: XBP1 mRNA splicing in HCT 116 cells; assay: RT-qPCR of ER stress-induced XBP1 mRNA splicing, HCT 116; type: cell-based, human; details: HCT116
# Experimental: as §1
# [3] = test system: XBP1 mRNA splicing in HT-29 cells; assay: RT-qPCR of ER stress-induced XBP1 mRNA splicing, HT-29; type: cell-based, human; details: HT-29
# Experimental: as §1
# [4] = test system: IRE1α transcription level in A549 cells; assay: RT-qPCR of IRE1α transcription level, A549; type: cell-based, human; details: A549
# Experimental: as §1
# [5] = test system: IRE1α transcription level in HCT 116 cells; assay: RT-qPCR of IRE1α transcription level, HCT 116; type: cell-based, human; details: HCT116
# Experimental: as §1
# [6] = test system: IRE1α transcription level in HT-29 cells; assay: RT-qPCR of IRE1α transcription level, HT-29; type: cell-based, human; details: HT-29
# Experimental: as §1
# [7] = target: T1, dephosphorylated IRE1α (547–977) (Homo sapiens, UniProt O75460); assay: FRET-based IRE1α RNase activity assay, dephosphorylated IRE1α; type: biochemical
# T1 construct: Human IRE1α kinase and RNase domain (residues 547–977) was subcloned into pLIB plasmid; His tag (with TEV cleavage site) (N, cleaved yes); made in house; host or cells: Sf9 insect cells, baculovirus (Bac-to-Bac)
# How it was run: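 Dephosphorylated human IRE1α (residues 547–977, Sf9-expressed, λ-phosphatase treated), 40 nM, preincubated 30 min with compound at room temperature, then 100 nM FAM/BHQ1 XBP1 RNA added in HEPES pH 7.5 buffer. Fluorescence (485/535 nm) read kinetically for 1 h; inhibition from linear-phase slopes versus DMSO, fitted to IC50.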
# [8] = target: T2, phosphorylated IRE1α (p-IRE1α) (Homo sapiens, UniProt O75460); assay: FRET-based IRE1α RNase activity assay, phosphorylated IRE1α; type: biochemical
# T2 construct: Human IRE1α kinase and RNase domain (residues 547–977) was subcloned into pLIB plasmid; His tag (with TEV cleavage site) (N, cleaved yes); made in house; host or cells: Sf9 insect cells, baculovirus (Bac-to-Bac)
# How it was run: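 Sf9-expressed IRE1α kinase-RNase domain (residues 547–977), fully phosphorylated fraction, 4 nM, preincubated with compound 30 min at RT, then 200 nM FAM/BHQ1 XBP1 RNA added in HEPES pH 7.5 buffer. Fluorescence (ex 485/em 535 nm) read kinetically for 1 h at RT; inhibition from linear slopes, IC50 by concentration-response fit.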
# [9] = target: T3, p-IRE1α dimerization and oligomerization (Homo sapiens, UniProt O75460); assay: DSS cross-linking assay with mass photometry; details: 100 μM compound, DSS crosslinking
# T3 construct: Human IRE1α kinase and RNase domain (residues 547–977) was subcloned into pLIB plasmid; His tag (with TEV cleavage site) (N, cleaved yes); made in house; host or cells: Sf9 insect cells, baculovirus (Bac-to-Bac)
# Experimental: Phosphorylated IRE1α (p-IRE1α) and compounds were incubated 30 min at room temperature, with a final concentration of 2 μM p-IRE1α and 100 μM of the indicated compound, in a buffer containing 20 mM HEPES, pH 7.5, 50 mM KOAc, 1 mM MgOAc2, 1 mM DTT, 0.05% v/v TritonX-100, in a total reaction volume of 20 μL. After incubation, DSS (disuccinimidyl suberate, Thermo Fisher, A39267) was added to the reaction at a final concentration of 250 μM to induce crosslinking at room temperature for 1 h. Tris (pH 7.5) was added to a final concentration of 50 mM to stop the reaction. Samples were further measured with a mass photometry instrument (Refeyn Ltd). The PBS buffer was used for the mass photometry measurement. The instrument was calibrated with BSA and TG protein mixture in PBS. Samples were diluted to a protein concentration of 100 nM with buffer before measurement. Then, 18 μL PBS buffer was added to the center of the gasket on the coverslips to check and find the focus. Afterward, 2 μL of the diluted sample was added, mixed, and measured. Data were analyzed using Discover MP software, for each sample, results from 3 individual measurements were merged.
# T2 sequence (O75460 547-977): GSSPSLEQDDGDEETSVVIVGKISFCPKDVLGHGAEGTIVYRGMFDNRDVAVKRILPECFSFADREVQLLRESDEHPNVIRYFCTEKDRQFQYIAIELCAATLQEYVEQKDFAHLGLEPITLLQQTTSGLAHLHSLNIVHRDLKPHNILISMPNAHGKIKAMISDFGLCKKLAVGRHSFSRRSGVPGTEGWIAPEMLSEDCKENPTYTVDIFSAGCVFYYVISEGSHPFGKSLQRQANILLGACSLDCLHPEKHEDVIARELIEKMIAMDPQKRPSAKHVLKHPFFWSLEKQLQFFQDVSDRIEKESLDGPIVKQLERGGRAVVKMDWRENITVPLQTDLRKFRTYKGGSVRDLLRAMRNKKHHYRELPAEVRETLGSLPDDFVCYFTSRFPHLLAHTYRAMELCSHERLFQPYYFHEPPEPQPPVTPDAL
# T1 sequence (O75460 547-977): as above
# T3 sequence (O75460 547-977): as above
compound,measurement,setting,value
Cc1cc(=O)oc2c(C=O)c(O)ccc12 [Compound 4μ8c],pIC50,IRE1α,7.12
CN1CCC(CNc2cc(Cl)nn3c(-c4cc5nc(Nc6ccccc6)[nH]c5cc4F)cnc23)CC1 [Compound 31],pIC50,IRE1α,7.10
Cc1ccc(C)c(NC(=O)NC(C)CCc2ccc(O)cc2)c1 (stereo not drawn) [Compound Z4P],pIC50,IRE1α,5.50
CCOC(=O)CCc1c(C)n(C(=O)c2ccccc2)c2ccc(Br)cc12 [IA105],Relative XBP1s/Actin,[1]; 0.009 μM,2.671 and 2.32 and 2.971 and 2.381
same,Relative XBP1s/Actin,[1]; 0.027 μM,2.362 and 2.303 and 2.482 and 2.4563
same,Relative XBP1s/Actin,[1]; 0.082 μM,2.039 and 2.057 and 2.192 and 2.023
same,Relative XBP1s/Actin,[1]; 0.247 μM,1.808 and 1.675 and 1.769 and 1.486
same,Relative XBP1s/Actin,[1]; 0.741 μM,1.216 and 1.256 and 1.279 and 1.145
same,Relative XBP1s/Actin,[1]; 2.22 μM,1.073 and 0.792 and 1.044 and 0.8663
same,Relative XBP1s/Actin,[1]; 6.67 μM,1.0995 and 1.154 and 1.208 and 1.113
same,Relative XBP1s/Actin,[1]; 20 μM,1.054 and 1.019 and 1.028 and 0.9077
same,Relative XBP1s/Actin,[2]; 0.009 μM,5.428 and 5.195 and 5.7981 and 4.548
same,Relative XBP1s/Actin,[2]; 0.027 μM,5.989 and 4.76 and 5.372 and 4.813
same,Relative XBP1s/Actin,[2]; 0.082 μM,5.025 and 4.655 and 4.826 and 4.338
same,Relative XBP1s/Actin,[2]; 0.247 μM,4.351 and 4.263 and 4.713 and 3.571
same,Relative XBP1s/Actin,[2]; 0.741 μM,2.654 and 2.493 and 2.725 and 2.232
same,Relative XBP1s/Actin,[2]; 2.22 μM,1.206 and 0.9713 and 1.3073 and 1.15
same,Relative XBP1s/Actin,[2]; 6.67 μM,1.256 and 1.21 and 1.297 and 1.076
same,Relative XBP1s/Actin,[2]; 20 μM,1.065 and 0.9931 and 0.9536 and 0.8918
same,Relative XBP1s/Actin,[3]; 0.003 μM,11.684 and 10.815 and 12.821 and 10.854
same,Relative XBP1s/Actin,[3]; 0.009 μM,11.469 and 10.431 and 11.317 and 10.144
same,Relative XBP1s/Actin,[3]; 0.027 μM,12.267 and 11.074 and 12.013 and 10.900
same,Relative XBP1s/Actin,[3]; 0.082 μM,8.652 and 8.438 and 8.782 and 8.518
same,Relative XBP1s/Actin,[3]; 0.247 μM,4.629 and 4.592 and 4.962 and 3.379
same,Relative XBP1s/Actin,[3]; 0.741 μM,1.283 and 1.309 and 1.516 and 1.277
same,Relative XBP1s/Actin,[3]; 2.22 μM,1.103 and 1.024 and 1.015 and 0.976
same,Relative XBP1s/Actin,[3]; 6.67 μM,0.958 and 0.872 and 0.904 and 0.841
same,Relative XBP1s/Actin,[3]; 20 μM,1.096 and 1.163 and 1.053 and 0.889
same,Relative IRE1α/Actin,[4]; 0.009 μM,1.097 and 0.928 and 1.209 and 0.916
same,Relative IRE1α/Actin,[4]; 0.027 μM,1.090 and 0.987 and 1.064 and 0.939
same,Relative IRE1α/Actin,[4]; 0.082 μM,1.050 and 1.155 and 1.127 and 1.034
same,Relative IRE1α/Actin,[4]; 0.247 μM,1.053 and 1.161 and 1.037 and 0.961
same,Relative IRE1α/Actin,[4]; 0.741 μM,0.957 and 1.053 and 0.856 and 0.910
same,Relative IRE1α/Actin,[4]; 2.22 μM,1.022 and 0.873 and 1.063 and 1.025
same,Relative IRE1α/Actin,[4]; 6.67 μM,0.890 and 0.939 and 0.992 and 0.722
same,Relative IRE1α/Actin,[4]; 20 μM,1.131 and 1.096 and 0.934 and 0.949
same,Relative IRE1α/Actin,[5]; 0.009 μM,0.982 and 0.954 and 1.279 and 1.057
same,Relative IRE1α/Actin,[5]; 0.027 μM,1.271 and 1.075 and 1.281 and 1.112
same,Relative IRE1α/Actin,[5]; 0.082 μM,0.845 and 0.871 and 0.924 and 0.835
same,Relative IRE1α/Actin,[5]; 0.247 μM,0.966 and 1.085 and 1.076 and 0.890
same,Relative IRE1α/Actin,[5]; 0.741 μM,0.990 and 1.042 and 1.123 and 0.879
same,Relative IRE1α/Actin,[5]; 2.22 μM,1.133 and 1.010 and 1.231 and 1.072
same,Relative IRE1α/Actin,[5]; 6.67 μM,1.059 and 0.972 and 1.144 and 0.971
same,Relative IRE1α/Actin,[5]; 20 μM,1.034 and 0.915 and 0.978 and 0.882
same,Relative IRE1α/Actin,[6]; 0.003 μM,1.012 and 1.008 and 1.050 and 0.980
same,Relative IRE1α/Actin,[6]; 0.009 μM,0.917 and 0.954 and 1.053 and 0.909
same,Relative IRE1α/Actin,[6]; 0.027 μM,1.104 and 0.811 and 1.025 and 1.043
same,Relative IRE1α/Actin,[6]; 0.082 μM,0.794 and 0.825 and 1.037 and 0.844
same,Relative IRE1α/Actin,[6]; 0.247 μM,0.885 and 0.861 and 0.831 and 0.823
same,Relative IRE1α/Actin,[6]; 0.741 μM,0.783 and 0.766 and 0.908 and 0.750
same,Relative IRE1α/Actin,[6]; 2.22 μM,0.956 and 0.812 and 1.017 and 0.944
same,Relative IRE1α/Actin,[6]; 6.67 μM,0.712 and 0.683 and 0.754 and 0.735
same,Relative IRE1α/Actin,[6]; 20 μM,1.089 and 1.044 and 0.863 and 0.952
CC1(c2nc(-c3ccc(NC(=O)Nc4cccc(F)c4)c4ccccc34)c3c(N)nccn23)CC1 [KIRA7],pIC50,IRE1α,6.96
COc1cc2c(C)c(CC(=O)N3CCOCC3)c(=O)oc2c(C=O)c1O [MCK8866],pIC50,IRE1α,6.41
COCCOCCc1c(C)c2cc(OC)c(O)c(C=O)c2oc1=O [MCK9989],pIC50,IRE1α,6.54
O=S(=O)(N=Cc1c(O)ccc2ccccc12)c1cccs1 [STF-083010],pIC50,IRE1α,4.60
"CN[C@@H]1C[C@H]2O[C@@](C)([C@@H]1OC)n1c3ccccc3c3c4c(c5c6ccccc6n2c5c31)C(=O)NC4 [STS, staurosporine, reference compound]",effect on IRE1α RNase activity in the FRET assay,[7],activated the RNase activity
same,effect on p-IRE1α RNase activity in the FRET assay,[8],did not affect the RNase activity
same,effect on p-IRE1α dimerization/oligomerization,[9],did not affect the dimerization and oligomerization

# Reference: publication PMC12475274, “Harnessing indole scaffolds to identify small-molecule IRE1α inhibitors modulating XBP1 mRNA splicing” (Nature Communications, 2025)
